PubChem BioAssay (NCI)
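Method: 48-hour compound exposure of cells in 96-well plates, five concentrations, linear interpolation of endpoints. The concentration for 50% growth inhibition is given as GI50. The concentration for full growth arrest is given as TGI.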 *1 amine or outer side, *2 acyl side, *3 side chain or, on linkers, in order; H or OH if unused. Where a SMILES comes first, the peptide text is derived from it. [ ]: non-standard residue; d: D form. X56 = CC[C@H](C)[C@H](OC(=O)[C@@H](C)[C@@H](CC)N[*:1])C(=O)[*:2]; X32 = C[C@H](N[*:1])C(=O)C(C)(C)C(=O)[*:2]; NMeY = CN[C@@H](Cc1ccc(O)cc1)C(=O)O; NMeL = CN[C@@H](CC(C)C)C(=O)O; NMeV = CN[C@H](C(=O)O)C(C)C

Tests used:
Test in all cases: NCI anticancer screen, dose series, 48 h
MDA-N = test system: MDA-N
MDA-MB-435 = test system: MDA-MB-435
DLD-1 colon = test system: DLD-1 colon
SNB-78 CNS = test system: SNB-78 CNS
HOP-18 NSCLC = test system: HOP-18 NSCLC
M19-MEL melanoma = test system: M19-MEL melanoma
DMS 114 small cell lung = test system: DMS 114 small cell lung
LXFL 529 NSCLC = test system: LXFL 529 NSCLC
RXF-631 renal = test system: RXF-631 renal

SMILES | TGI (MDA-MB-435) [µM] | GI50 (MDA-MB-435) [µM] | TGI (DLD-1 colon) [µM] | TGI (SNB-78 CNS) [µM] | TGI (HOP-18 NSCLC) [µM] | TGI (M19-MEL melanoma) [µM] | TGI (DMS 114 small cell lung) [µM] | TGI (LXFL 529 NSCLC) [µM] | also measured
O=C(O)C1CCCCC1c1c2ccc(=O)cc-2oc2cc(O)ccc12 (configuration not stated) | 49.3 |  |  |  |  |  |  |  | TGI (MDA-N): > 100 µM
O=C(COc1cccc(/C=C2\CSc3ccccc3C2=O)c1)c1ccc(Cl)cc1 | 3.44 | 1.64 |  |  |  |  |  |  | 
CC(C)c1ccc(NC(=S)NC(=O)c2ccccc2)cc1 | 28.1 |  |  |  |  |  |  |  | 
C=CCn1cc(C(=O)NC(=O)NCCCCCOC(=O)CCCCCCCCCCC(=O)OCCCCCNC(=O)NC(=O)c2cn(CC=C)c(=O)n(C)c2=O)c(=O)n(C)c1=O |  |  | > 100 | > 100 | > 100 | > 100 | > 100 | > 100 | 
COc1cc(Nc2nc3ccc(C(F)(F)F)cc3nc2-c2ccccc2)cc(OC)c1OC |  |  | > 100 | > 100 |  |  |  | > 100 | 
CN1CCN(c2ccc(C(=O)Nc3cc(-c4cccc(NS(=O)(=O)c5ccccc5)c4)[nH]n3)cc2)CC1 | 22.3 | 6.84 |  |  |  |  |  |  | 
NC1=Nc2cc(OCCCN3Cc4ccccc4C3)c(OCC3CC3)cc2C12CCCC2 | 3.66 | 1.8 |  |  |  |  |  |  | 
C1COCCOCCOCCOCCO1.CC(=O)[CH-]C(C)=O.CC(=O)[CH-]C(C)=O.CC(=O)[CH-]C(C)=O.[V] |  |  | > 100 |  | 77.9 |  | 82.1 | 41.2 | GI50 (DLD-1 colon): 28 µM; GI50 (HOP-18 NSCLC): 28.2 µM; GI50 (DMS 114 small cell lung): 28.3 µM; GI50 (LXFL 529 NSCLC): 20.7 µM
O=C1CS/C(=N\S(=O)(=O)c2ccc(N3N=C4c5ccccc5CC4C3c3ccc(Cl)cc3)cc2)N1c1ccccc1 (configuration not stated) | 88.8 | 30.6 |  |  |  |  |  |  | 
CC[C@H](C)[C@@H]1OC(=O)[C@@H](C)[C@@H](CC)NC(=O)[C@H](C)NC(=O)C(C)(C)C(=O)[C@H](C)NC(=O)[C@H](Cc2ccc(OC)cc2)N(C)C(=O)[C@H](C(C)C)N(C)C(=O)CNC(=O)[C@H](CC(C)C)N(C)C(=O)CNC1=O (cyclo(A[X56]G[NMeL]G[NMeV][NMeY](Me)[X32])) | 2.47 |  | 2.12 |  | 0.0425 | 22.3 | 1.13 | 0.0823 | 
Cc1c(N=Cc2ccc(N(CCC#N)CCC#N)cc2)c(=O)n(-c2ccccc2)n1C | > 100 |  | > 100 | > 100 | > 100 | > 100 | > 100 | > 100 | TGI (MDA-N): > 100 µM
Cn1c(=O)c(Oc2ccccc2)cc2cnc(NC3CCOCC3)nc21 | > 25 | > 25 |  |  |  |  |  |  | 
Cc1ccc(Sc2sc(-c3ccccc3)nc2[P+](c2ccccc2)(c2ccccc2)c2ccccc2)cc1 | 0.882 | 0.291 |  |  |  |  |  |  | 
COc1cc(/C=C(\OC(C)=O)c2ccc3c(c2)OCO3)cc(OC)c1OC |  |  | 60.6 | 91.9 | > 100 | 30.9 | 29 | 34.9 | 
C=C1C[C@@]2(C)C(CC[C@]3(C)C2CC=C2C4CC(C)(C)C[C@@H](OC(=O)/C(C)=C\C)[C@]4(C(=O)O)CC[C@]23C)C(C)(C)C1=O (some centres not stated) | 8.61 | 2.83 |  |  |  |  |  |  | 
O=C(CC1C=CCS1(=O)=O)NCc1ccccc1 (configuration not stated) | > 100 |  |  |  |  |  |  |  | TGI (MDA-N): > 100 µM
CC(=O)OC1Oc2ccccc2-c2oc(=O)c(-c3cc4ccccc4oc3=O)cc21 (configuration not stated) | 79.6 | 22.3 |  |  |  |  |  |  | 

SMILES | TGI (MDA-MB-435) [µM] | GI50 (MDA-MB-435) [µM] | TGI (DLD-1 colon) [µM] | TGI (SNB-78 CNS) [µM] | TGI (HOP-18 NSCLC) [µM] | TGI (M19-MEL melanoma) [µM] | TGI (DMS 114 small cell lung) [µM] | TGI (LXFL 529 NSCLC) [µM] | also measured
Cc1cc(N(CCCl)CCCl)ccc1/C=N/NC(=O)Cc1cc(=O)oc2cc(O)ccc12 | 38.5 |  |  |  |  |  |  |  | TGI (MDA-N): 32.4 µM
CC/C=C/c1cc2cc[nH]c2c2c1C(C)C[C@@H]2C (some centres not stated) |  |  | > 100 | 67 | 73.7 | 77.3 | 51 | 41.9 | 
COc1ccc2c(c1)C1(C(=O)N2)C(C#N)=C(c2ccccc2)Nc2c1c(-c1ccccc1)nn2-c1ccccc1 (configuration not stated) | 5.29 | 2.16 |  |  |  |  |  |  | 
O=C(c1ccc(Cl)cc1)c1ccc(OCCSCCCCCCCCCCSCCOc2ccc(C(=O)c3ccc(Cl)cc3)cc2)cc1 |  |  | > 100 | > 100 |  | > 100 |  |  | TGI (RXF-631 renal): > 100 µM
N#Cc1c(N)nc(N2CCOCC2)c(C#N)c1-c1ccccc1Cl | > 100 | 80.2 |  |  |  |  |  |  | 
N#CC1C2CCC3(CC2CCN1C(=O)c1ccccc1)OCCO3 (configuration not stated) |  |  | > 100 | > 100 | > 100 | > 100 | > 100 | > 100 | 
COc1ccc2c(c1)/C(=N/OC(C)=O)c1c-2c(=O)[nH]c2ccccc12 | 34.5 | 17.3 |  |  |  |  |  |  | 
NC1CCC(N[C@@H]2C[C@H]2c2ccccc2)CC1 (some centres not stated) | > 100 | 48.4 |  |  |  |  |  |  | 
N#CC1CC2(C(=O)C1=O)c1ccccc1-c1ccccc12 (configuration not stated) |  |  | > 100 |  | > 100 | > 100 | > 100 | > 100 | 
N#C/C(=C\c1ccc(Br)cc1)n1nnc2ccccc21 | 0.438 | 0.191 |  |  |  |  |  |  | 
c1ccc(COC2(OCc3ccccc3)CC3OC2C2NN=NC32)cc1 (configuration not stated) |  |  | 31.3 | 86.3 | 92.9 | 32.2 |  | 29.3 | 
COC1=C(Br)C(=O)C2=C(C1=O)C1C3=C(C(=O)C=CC3=O)C2c2ccccc21 (configuration not stated) | 36.3 | 18.2 |  |  |  |  |  |  | 
COc1cc2c(c(OC)c1OC)-c1ccc(OC)c(=O)cc1[C@@H](N(C)C=O)CC2 |  |  | > 100 | > 100 | > 100 | > 100 |  | > 100 | TGI (RXF-631 renal): > 26.2 µM
CC(=O)/C=C/c1ccc(C)cc1 |  |  | > 100 | > 100 | > 100 | > 100 | > 100 | > 100 | 
COc1cc(/C=C2\C(=O)Nc3cccc(Cl)c32)cc(OC)c1OC | > 100 | > 100 |  |  |  |  |  |  | 
C/C(=N\N=C(N)N)C(CN(C)C)C(c1ccccc1)c1c(O)c2ccccc2oc1=O (configuration not stated) | > 100 |  | > 100 | > 100 | > 100 | > 100 | > 100 | > 100 | TGI (MDA-N): > 100 µM
C1=Nc2ccccc2C=Nc2ccccc2C=Nc2ccccc2C=Nc2ccccc21.[Cl-].[Pt+2] |  |  | 98.4 |  | > 100 | > 100 | 46.2 | 60 | GI50 (RXF-631 renal): 30.9 µM; TGI (RXF-631 renal): 77.9 µM; GI50 (DLD-1 colon): 17.8 µM; GI50 (HOP-18 NSCLC): 22.3 µM; GI50 (M19-MEL melanoma): 22.2 µM; GI50 (DMS 114 small cell lung): 12.1 µM; GI50 (LXFL 529 NSCLC): 10.3 µM
